Where two headings read alike, the source gives them in different places.
Tests used:
[1] = Further evaluation of BRL55792 as oral prodrug of BRL44385: AUC in blood of squirrel monkeys (Table 2); assay type: in vivo; settings: 110 umol/kg, squirrel monkey, single oral dose 0.11 mmol/kg, 0-8 h, 3 animals
Experimental: |Further evaluation of BRL55792 as a potential oral prodrug of BRL44385 in |rats and squirrel monkeys | ^a Compounds were administered as a single oral dose at either 0.2 | mmol/kg (equivalent to 44.5 mg/kg free BRL44385) to rats with an | indwelling aortic cannula or 0.11 mmol/kg (equivalent to 25 mg/kg free | BRL44385) to squirrel monkeys. Sequential blood samples were collected up | to 8 h after compound administration. Following treatment as described in | table 1, the samples were assayed for BRL55792, BRL44385 and intermediate | matabolites. | ^b Mean areaunder-the-curve values were calculated from blood | concentrationtime profiles from 3 animals by the trapezoidal rule (0-6 h | for rats and 0-8 h for squirrel monkeys). | ^c AUC of BRL44385 from prodrug/AUC of BRL44385 from oral BRL44385

[2] = Concentrations of BRL44385 and its prodrugs detected in the blood of mice after oral administration (Table 1); assay type: in vivo, female Balb/c mice; settings: mouse, 200 umol/kg, total 9-alkoxypurines, 0.2 mmol/kg oral gavage
Experimental: |Concentrations of BRL44385 and its Prodrugs Detected in the |Blood of Mice after Oral Administration of |9-(Alkoxymethoxypropoxy)purines^a | ^a Compounds were administered as single doses of 0.2 mmol/kg in 0.1 | ml of 1% (carboxymethyl)cellulose by oral gavage to female Balb/c mice | weighing approximately 20 g. Food was withheld for 18 h prior to the star | of the experiment. Blood was collected by cardiac puncture using | heparinised syringes 15, 60 and 180 min after dosing. Equal volumes (0.2 | ml) from three mice were pooled at each time point and 0.6 ml of 16% | trichloroacetic acid was added. After centrifugation, 0.5 ml of | supernatent was added to 0.1 ml of saturated aqueous NaHCO3 followed | by the addition of 0.6 ml of 0.4M NH4 OAc (pH 6.0) and the mixture | analysed by HPLC. | ^b 9-Alkoxypurine concentrations <2 μM were detected in the blood | 180 min after dosing.

AUC at 8 h ([1]; analyte BRL55792, read-out: Mean Area-under-the-curve ± SEM for BRL 55792)	concentration at 0.25 h ([2]; 15 min, read-out: Concn in blood at time (min) after dosing: total 9-alkoxypurines, 15)	concentration at 1 h ([2]; 60 min, read-out: Concn in blood at time (min) after dosing: total 9-alkoxypurines, 60)	AUC at 8 h ([1]; analyte BRL44385, read-out: Mean Area-under-the-curve ± SEM for BRL 44385)	Structure (SMILES)
13 ± 5.7 µM·h				CC(C)OCOCCCOn1cnc2cnc(N)nc21 [Example 1, 2-Amino-9-[3-(isopropoxymethoxy)propoxy)purine]
	8.9 µM	4 µM	13 ± 2.4 µM·h	Nc1nc(O)c2ncn(OCCCO)c2n1 [Example E1, 9-(3-hydroxyprop-1-oxy)guanine]
